From US20060256599A1, “Database of electronically profiled cells and methods for generating and using same” (priority 2005, published 2006)

Legend:
[1] = system: rat primary neonatal explants; conditions: in vitro; from King et al., Genentech paper; cited from earlier work
[2] = system: cells in culture; assay: effect of chemotherapeutic agents on cellular conductance and cell number; assay type: cell-based; conditions: 100 ng in each ml of media, DMEM + 10% serum, FIG. 6
Experimental: FIG. 6 depicts the effect of chemotherapeutic agents on cellular conductance and cell number.
Cells were seeding at a density of 1.0E+5 in 2 ml of DMEM with 10% FBS. The cells were grown and cultured for 24 hours. On day 2 eight wells were counted in a Coulter type counter after harvesting by trypsinization for initial cell count. Additional wells containing cells were examined to confirm cell viability and health by phase microscopy. The media as then aspirated and wells were filled with DMEM+10% serum (control) or DMEM+10% serum containing various concentrations of chemotherapeutic agent (e.g. Methotrexate.). The dose was 100 ng in each ml of media.

Compound	metabolic activity (heart beats) increased [1] [%]	cell number ([2]; Coulter type counter)	cell conductance [2]
leukemia inhibitory factor [LIF]	125	–	–
prostaglandin F2alpha [PGF]	54	–	–
CNC[C@H](O)c1cccc(O)c1 [PE, Phenylephrine]	84	–	–
CN(Cc1cnc2nc(N)nc(N)c2n1)c1ccc(C(=O)N[C@@H](CCC(=O)O)C(=O)O)cc1 [Methotrexate]	–	decreased cell number	decrease in cell conductance
